In patent US20180258180A1, “COMBINATION THERAPY INVOLVING ANTIBODIES AGAINST CLAUDIN 18.2 FOR TREATMENT OF CANCER” (Ganymed Pharmaceuticals AG, priority 2012, published 2018):

Tests used:
[1] = tested on: NCI-N87~CLDN18.2 xenograft tumors; experiment: Combination of IMAB362 and EOF regimen on NCI-N87~CLDN18.2 xenografts; assay type: in vivo, nude mice
Description: NCI-N87˜CLDN18.2 xenograft tumors were inoculated by injection of 1×10^7 NCI-N87˜CLDN18.2 cells subcutaneous into the flank of 9 mice for each treatment group. […] IMAB362 treatment was continued weekly. Tumor size and animal health was monitored semi-weekly. […] The size of s.c. tumors was measured twice weekly (mean+SEM; *p<0.05). […] Mice were sacrificed, when tumor reached a volume of 1400 mm^3.

[2] = tested on: HEK293~CLDN18.2 tumor xenografts; experiment: Treatment of advanced HEK293~CLDN18.2 tumor xenografts; assay type: in vivo, nude mice
Excerpt: Moreover, advanced tumor treatment experiments were initiated up to 9 days after tumor cell inoculation when tumors had reached volumes of about 60-120 mm^3.
(§1) Treatment of 9 to 10 mice per group was initiated when mean tumor volumes reached 88 mm^3 (62-126 mm^3). […] All mice in the groups treated with either PBS or isotype control died within 50-100 days. […] Three of these mice survived the entire observation period (FIG. 20). Importantly, antitumoral efficacy in vivo depends on the presence of the target on the tumor cells.

[3] = tested on: NUGC-4 cells expressing CLDN18.2; experiment: IMAB362 ADCC with ZA/IL-2 cultivated PBMCs on NUGC-4 cells (luciferase); assay type: cell-based, human; conditions: PBMCs cultivated 14 days with ZA/IL-2, NUGC-4 targets
Description: Specific killing was determined in luciferase assays; cf. FIG. 14a. […] NUGC-4 served as target cells.

[4] = target: CLDN18.2 (Homo sapiens, UniProt P56856); experiment: IMAB362 binding to first extracellular domain of CLDN18.2
[5] = tested on: NUGC-4 xenografts; experiment: Biodistribution of Dyelight 680-labeled antibodies in NUGC-4 xenografted nude mice; conditions: live imaging
[6] = tested on: NUGC-4 gastric cancer cells; experiment: IMAB362-mediated ADCC on chemotherapy pretreated NUGC-4 cells; assay type: cell-based, human; conditions: NUGC-4 pretreated with 5-FU+OX, EOF or FLO for 96 hours
Description: IMAB362-mediated ADCC was investigated using NUGC-4 gastric cancer cells as target, which were either pretreated with 10 ng/ml 5-FU and 500 ng/ml oxaliplatin (5-FU+OX), 10 ng/ml epirubicin, 500 ng/ml oxaliplatin and 10 ng/ml 5-FU (EOF) or 10 ng/ml 5-FU, 50 ng/ml folinic acid and 500 ng/ml oxaliplatin (FLO) for 96 hours (effector:target ratio 40:1) or untreated. EC50 values were obtained from 7 healthy donors for untreated and EOF, FLO or 5-FU+OX pretreated NUGC-4 cells.

[7] = Repeated dose toxicity study in mice; assay type: in vivo; conditions: weekly administration for 3 months, highest dose levels 400 mg/kg
Excerpt: (§2) This compartimentalization is lost upon malignant transformation rendering the epitope drugable by IMAB362.

[8] = tested on: NCI-N87~CLDN18.2 xenograft tumors; experiment: NCI-N87~CLDN18.2 gastric carcinoma xenografts, IMAB362 immunotherapy; assay type: in vivo, nude mice; conditions: 800 μg i.v. weekly
Description: NCI-N87˜CLDN18.2 xenograft tumors were inoculated subcutaneously by injection of 1×10^7 NCI-N87˜CLDN18.2 cells into the flank of 8 nude mice (female, 6 weeks old) per treatment group. […] Intravenous administration was continued weekly for the whole observation time. Tumor size and animal health was monitored semi-weekly. […] The size of s.c. tumors was measured twice weekly (mean+SEM, ***p<0.001). […] Mice were sacrificed, when tumor reached a volume of 1400 mm^3.

[9] = tested on: NUGC-4~CLDN18.2 xenografts; experiment: NUGC-4~CLDN18.2 xenografts, IMAB362 immunotherapy; parameters: species or system mice; conditions: mouse, in vivo
[10] = tested on: CLDN18.2-transfected HEK293 cells; experiment: IMAB362 with ZA/IL-2 induced Vγ9Vδ2 T cells on HEK293~CLDN18.2 tumors in NSG mice; assay type: in vivo; conditions: 200 μg semi-weekly, in the presence of human γδ T cells and ZA (and IL-2)
Description: NSG mice lack mature T cells, B cells, natural killer (NK) cells, multiple cytokine signaling pathways, and they have many defects in innate immunity, whereas the niches in the primary and secondary immunological tissues are permissive to colonization by human immune cells.
NSG mice were inoculated subcutaneously with 1×10^7˜CLDN18.2-transfected HEK293 cells. On the same day, mice received 8×10^6 human PBMCs enriched for Vγ9Vδ2 T cells, which were cultured for 14 days in ZA-supplemented medium. […] To maintain human T cells functional, IL-2 was administered semi-weekly and ZA weekly. […] In addition to 9 mice treated as described, two control groups of mice were established.

[11] = tested on: CLDN18.2-negative HEK293 tumor cells; experiment: IMAB362 treatment of CLDN18.2-negative HEK293 tumors; parameters: species or system mice; conditions: mouse, in vivo
Excerpt: as §1

[12] = target: CLDN18.1 (Homo sapiens, UniProt P56856); experiment: IMAB362 binding to other claudin family members
[13] = tested on: CLDN18.2-positive cancer cell lines; experiment: IMAB362 treatment of mice bearing CLDN18.2-positive cancer cell lines; assay type: in vivo
[14] = tested on: CLDN18.2-positive (NUGC-4, KATO III) human target cell lines; experiment: IMAB362 ADCC with ZA/IL-2 expanded effector cells on CLDN18.2-positive target cell lines; assay type: cell-based
Description: These effector cell cultures were used in ADCC assays with CLDN18.2-positive (NUGC-4, KATO III) and negative (SK-BR-3) human target cell lines (E:T ratio 40:1). […] ADCC was measured in luciferase assays; cf. FIG. 15a. […] FIG. 15b. Same experiment as described in (a) was performed using NUGC-4 as target cells; cf. FIG. 15c. […] A purity of more than 97.0% Vγ9Vδ2 T cells in lymphocytes was obtained.

[15] = Repeated dose toxicity study in cynomolgus monkeys; assay type: in vivo; conditions: up to 5 weekly applications of up to 100 mg/kg
Excerpt: as §2

[16] = tested on: CLS-103~cldn18.2 allograft tumors; experiment: Combination of IMAB362 and EOF on CLS-103~cldn18.2 allograft tumors; parameters: species or system NMRI mice; conditions: mouse, in vivo
Excerpt: Tumor size and animal health were monitored semi-weekly. Mice were sacrificed, when tumor reached a volume of 1400 mm^3 or tumors became ulcerous.

[17] = Phase I clinical study, single intravenous administration; assay type: in vivo, human
Excerpt: IMAB362 is in early clinical testing. A phase I clinical study has been conducted in human. […] In an ongoing phase IIa clinical study IMAB362 is given repetitively.

IMAB362: chimeric IgG1 antibody directed against CLDN18.2, developed by Ganymed Pharmaceuticals AG
tumor growth compared to control mice ([1]; IMAB362 800 μg weekly, EOF i.p. day 4, 11, 18, 25): highly significant suppressed tumor growth | median survival ([1]; saline control 59 days): 76 days | median survival time ([2]; 200 μg twice per week for 6 weeks, start at mean tumor volume 88 mm^3, versus 25 days): 47 days | mice surviving the entire observation period ([2]; 9 to 10 mice per group): Three | survival ([2]; advanced tumors): survival benefit | IMAB362-dependent ADCC activity [3]: Strong | recognition of the first extracellular domain (ECD1) of CLDN18.2 [4]: high affinity and specificity | retention of labeled antibody signal 120 hours after injection [5]: detectable in comparable intensity | maximal lysis in IMAB362-mediated ADCC, pretreated versus untreated target cells [6]: higher maximal lysis | EC50 of IMAB362-mediated ADCC on pretreated cells relative to untreated cells ([6]; E:T 40:1, 7 donors): one third | tolerability of repeated doses i.v. [7]: well tolerated | survival time [8]: significantly (p<0.05) longer survival time | tumor growth ([8]; start 5 days after inoculation, versus saline): inhibited highly significant (p<0.001) | survival [9]: significantly (p<0.05) longer survival | tumor sizes at day 14 of treatment [9]: significant (p<0.05) smaller tumor sizes | outgrowth of CLDN18.2-positive tumors [10]: significantly inhibited and nearly abrogated | antitumoral effects [11]: No antitumoral effects | binding to any other claudin family member including CLDN18.1 [12]: does not bind | mice showing regression of their tumor [13]: up to 40% | survival [13]: survival benefit | ADCC activity with Vγ9Vδ2 T cells isolated with >97% purity ([14]; NUGC-4 targets, day 14): retained and partly improved | ADCC activity against CLDN18.2-positive human tumor cell lines ([14]; ZA/IL-2 cultured effector cells, E:T 40:1): Strong ADCC activity | tolerability of repeated doses i.v. [15]: well tolerated | tumor growth inhibition compared to saline control group [16]: no significant tumor growth inhibition | measured tumor markers ([17]; in one patient, within 4 weeks after treatment): decreased significantly | tolerability in patients ([17]; single i.v. administration, 33-1000 mg/m^2, observed for 28 days): very well tolerated
